# Assay: recombinant UMI read abundance after kanamycin selection (control-corrected) (log10(CPM+1)); higher = more efficient recombination; extreme values may be limits of the assay; sequences stand for … in AGTGCAGAGAAAATCGGCCAGTTTTCTCTGCCTGCAGTCCGCATGCCGTGGGACCCCTTGGGTTCTAACCTGTTGCCTAGATTTATGCAGCGGACTGCCTTTCTCCCAAAGTGATAAACCGG…AGGTTGGTTTCACT; site = the 11-nt donor
# Outline: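 Values are reported as log10(CPM+1), obtained by converting sequencing counts to CPM, averaging replicates and scaling by control-derived factors. The counts came from recombinant UMIs amplified by PCR across the donor–target junction. These UMIs came from a pooled Escherichia coli screen of donor and donor-binding-loop pairs for the IS621 bridge recombinase, plated with IPTG (0.07 mM) plus kanamycin or left unselected, in two replicates each.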
# 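Note: IS621 bridge recombinase in Escherichia coli cells against a fixed T5 target plasmid.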
row,Sequence,recombinant UMI read abundance (log10)
1,GGCAATGCATGGACCGGTTTTCCCGGTAATCCGTATTTGAA (site GGCAATACTTT),0
2,GGCAATGCATGGACCGGTTTTCCCGGTAATCCGTATTTGAA (site GGCAATCCTTT),0
3,GGCAATGCATGGACCGGTTTTCCCGGTAATCCGTATTTGAA (site GGCAATGCTTT),1.26
4,GGCAATGCATGGACCGGTTTTCCCGGTAATCCGTATTTGAA (site GGCAATTCTTT),0.536
5,GGCATATCATGGACCGGTTTTCCCGGTAATCCGTATTTGCA (site GGCATATCTTG),1.57
6,GGCCACCCATGGACCGGTTTTCCCGGTAATCCGTATTTGTC (site GGCCACCCTAA),0.133
7,GGCCACCCATGGACCGGTTTTCCCGGTAATCCGTATTTGTC (site GGCCACCCTCA),0.0127
8,GGCCACCCATGGACCGGTTTTCCCGGTAATCCGTATTTGTC (site GGCCACCCTGA),0
9,GGCCACCCATGGACCGGTTTTCCCGGTAATCCGTATTTGTC (site GGCCACCCTTA),0.0183
10,GGCCACCCATGGACCGGTTTTCCCGGTAATCCGTATTTGTT (site AGCCACCCTAA),0.0306
11,GGCCACCCATGGACCGGTTTTCCCGGTAATCCGTATTTGTT (site CGCCACCCTAA),0.181
12,GGCCACCCATGGACCGGTTTTCCCGGTAATCCGTATTTGTT (site GACCACCCTAA),0.018
13,GGCCACCCATGGACCGGTTTTCCCGGTAATCCGTATTTGTT (site GCCCACCCTAA),0.0196
14,GGCCACCCATGGACCGGTTTTCCCGGTAATCCGTATTTGTT (site GGACACCCTAA),0.0221
15,GGCCACCCATGGACCGGTTTTCCCGGTAATCCGTATTTGTT (site GGCAACCCTAA),0.00185
16,GGCCACCCATGGACCGGTTTTCCCGGTAATCCGTATTTGTT (site GGCCAACCTAA),0.0287
17,GGCCACCCATGGACCGGTTTTCCCGGTAATCCGTATTTGTT (site GGCCACACTAA),0.0112
18,GGCCACCCATGGACCGGTTTTCCCGGTAATCCGTATTTGTT (site GGCCACCCTAA),0.0168
19,GGCCACCCATGGACCGGTTTTCCCGGTAATCCGTATTTGTT (site GGCCACCCTAC),0.0176
20,GGCCACCCATGGACCGGTTTTCCCGGTAATCCGTATTTGTT (site GGCCACCCTAG),0
21,GGCCACCCATGGACCGGTTTTCCCGGTAATCCGTATTTGTT (site GGCCACCCTAT),0.0103
22,GGCCACCCATGGACCGGTTTTCCCGGTAATCCGTATTTGTT (site GGCCACCCTCA),0
23,GGCCACCCATGGACCGGTTTTCCCGGTAATCCGTATTTGTT (site GGCCACCCTGA),0

row,Sequence,recombinant UMI read abundance (log10)
1,GGCCACCCATGGACCGGTTTTCCCGGTAATCCGTATTTGTT (site GGCCACCCTTA),0.00548
2,GGCCACCCATGGACCGGTTTTCCCGGTAATCCGTATTTGTT (site GGCCACGCTAA),0.0127
3,GGCCACCCATGGACCGGTTTTCCCGGTAATCCGTATTTGTT (site GGCCACTCTAA),0.00279
4,GGCCACCCATGGACCGGTTTTCCCGGTAATCCGTATTTGTT (site GGCCAGCCTAA),0
5,GGCCACCCATGGACCGGTTTTCCCGGTAATCCGTATTTGTT (site GGCCATCCTAA),0.0127
6,GGCCACCCATGGACCGGTTTTCCCGGTAATCCGTATTTGTT (site GGCCCCCCTAA),0.0711
7,GGCCACCCATGGACCGGTTTTCCCGGTAATCCGTATTTGTT (site GGCCGCCCTAA),0.0085
8,GGCCACCCATGGACCGGTTTTCCCGGTAATCCGTATTTGTT (site GGCCTCCCTAA),0.0064
9,GGCCACCCATGGACCGGTTTTCCCGGTAATCCGTATTTGTT (site GGCGACCCTAA),0.0156
10,GGCCACCCATGGACCGGTTTTCCCGGTAATCCGTATTTGTT (site GGCTACCCTAA),0.031
11,GGCCACCCATGGACCGGTTTTCCCGGTAATCCGTATTTGTT (site GGGCACCCTAA),0.0781
12,GGCCACCCATGGACCGGTTTTCCCGGTAATCCGTATTTGTT (site GGTCACCCTAA),0.0101
13,GGCCACCCATGGACCGGTTTTCCCGGTAATCCGTATTTGTT (site GTCCACCCTAA),0.0225
14,GGCCACCCATGGACCGGTTTTCCCGGTAATCCGTATTTGTT (site TGCCACCCTAA),0.0158
15,GGCCACTCATGGACCGGTTTTCCCGGTAATCCGTATTTGTT (site GGCCACACTAA),0.0252
16,GGCCACTCATGGACCGGTTTTCCCGGTAATCCGTATTTGTT (site GGCCACCCTAA),0.00888
17,GGCCACTCATGGACCGGTTTTCCCGGTAATCCGTATTTGTT (site GGCCACGCTAA),0.00402
18,GGCCACTCATGGACCGGTTTTCCCGGTAATCCGTATTTGTT (site GGCCACTCTAA),1.33
19,GGCCAGACATGGACCGGTTTTCCCGGTAATCCGTATTTGAC (site GGCCAGACTGT),0.867
20,GGCCAGGCATGGACCGGTTTTCCCGGTAATCCGTATTTGTT (site GGCCAGGCTAA),0.00326
21,GGCCCAACATGGACCGGTTTTCCCGGTAATCCGTATTTGTA (site GGACCAACTTA),0.0271
22,GGCCCAACATGGACCGGTTTTCCCGGTAATCCGTATTTGTA (site GGCCCAACTTA),0.848
23,GGCCCAACATGGACCGGTTTTCCCGGTAATCCGTATTTGTA (site GGGCCAACTTA),0

row,Sequence,recombinant UMI read abundance (log10)
1,GGCCCAACATGGACCGGTTTTCCCGGTAATCCGTATTTGTA (site GGTCCAACTTA),0.00413
2,GGCCCACCATGGACCGGTTTTCCCGGTAATCCGTATTTGTG (site GGCCCACCTCA),0.0252
3,GGCCCCGCATGGACCGGTTTTCCCGGTAATCCGTATTTGAT (site GGCCCCGCTAT),1.24
4,GGCCCGCCATGGACCGGTTTTCCCGGTAATCCGTATTTGAA (site GGCCCGCCTTT),0
5,GGCCCGTCATGGACCGGTTTTCCCGGTAATCCGTATTTGCA (site GGCCCGTCTTG),1.73
6,GGCCTGGCATGGACCGGTTTTCCCGGTAATCCGTATTTGAG (site GGCCTGGCTCT),0.666
7,GGCGACCCATGGACCGGTTTTCCCGGTAATCCGTATTTGCC (site GGCGACCCTGG),0
8,GGCGTGGCATGGACCGGTTTTCCCGGTAATCCGTATTTGCA (site GGCGTGGCTTG),2.55
9,GGCTACACATGGACCGGTTTTCCCGGTAATCCGTATTTGCA (site GGCTACACTTG),1.86
10,GGCTAGACATGGACCGGTTTTCCCGGTAATCCGTATTTGAC (site GGCTAGACTGT),2.02
11,GGCTCAACATGGACCGGTTTTCCCGGTAATCCGTATTTGCT (site GGCTCAACTAG),0
12,GGCTGCTCATGGACCGGTTTTCCCGGTAATCCGTATTTGTG (site GGCTGCTCTCA),0.427
13,GGCTTCCCATGGACCGGTTTTCCCGGTAATCCGTATTTGTC (site GGCTTCCCTGA),0
14,GGGAAACCATGGACCGGTTTTCCCGGTAATCCGTATTTGGC (site GGGAAACCTGC),0
15,GGGAAGCCATGGACCGGTTTTCCCGGTAATCCGTATTTGGG (site GAGAAGCCTCC),0.00654
16,GGGAAGCCATGGACCGGTTTTCCCGGTAATCCGTATTTGGG (site GCGAAGCCTCC),0
17,GGGAAGCCATGGACCGGTTTTCCCGGTAATCCGTATTTGGG (site GGGAAGCCTCC),0.00361
18,GGGAAGCCATGGACCGGTTTTCCCGGTAATCCGTATTTGGG (site GTGAAGCCTCC),0.0194
19,GGGACGTCATGGACCGGTTTTCCCGGTAATCCGTATTTGTT (site GGAACGTCTAA),0.547
20,GGGACGTCATGGACCGGTTTTCCCGGTAATCCGTATTTGTT (site GGCACGTCTAA),0.0541
21,GGGACGTCATGGACCGGTTTTCCCGGTAATCCGTATTTGTT (site GGGACGTCTAA),1.78
22,GGGACGTCATGGACCGGTTTTCCCGGTAATCCGTATTTGTT (site GGTACGTCTAA),0.0147

# From the supplement of paper PMC11208160
